PubChem BioAssay (NCI)
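1) Cells in 96-well plates. 2) Compound, 48 h, 5 concentrations. 3) Linear interpolation between surrounding doses. 4) Unreached endpoint = highest concentration. TGI: total growth inhibition.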

Key:
Experiment in all cases: growth of human tumour cells (NCI), 48 h
[1] = tested on: IGROV1 ovarian
[2] = tested on: KM12 colon
[3] = tested on: LOX IMVI melanoma
[4] = tested on: MALME-3M melanoma
[5] = tested on: SF-268 CNS
[6] = tested on: RPMI-8226 leukemia
[7] = tested on: SNB-19 CNS
[8] = tested on: M14 melanoma
[9] = tested on: SK-MEL-28 melanoma
[10] = tested on: A498 renal
[11] = tested on: HCT-15 colon
[12] = tested on: UACC-62 melanoma
[13] = tested on: MDA-MB-435
[14] = tested on: RXF 393 renal
[15] = tested on: BT-549 breast
[16] = tested on: NCI-H226 lung
[17] = tested on: NCI-H522 lung
[18] = tested on: SN12C renal
[19] = tested on: XF 498 CNS
[20] = tested on: LXFL 529 NSCLC

Row | SMILES | TGI [1] [µM] | TGI [2] [µM] | TGI [3] [µM] | TGI [4] [µM] | TGI [5] [µM] | TGI [6] [µM] | TGI [7] [µM] | TGI [8] [µM] | TGI [9] [µM] | TGI [10] [µM] | TGI [11] [µM] | TGI [12] [µM] | TGI [13] [µM] | TGI [14] [µM] | TGI [15] [µM] | TGI [16] [µM] | TGI [17] [µM] | TGI [18] [µM] | TGI [19] [µM] | TGI [20] [µM]
1 | c1ccc2c(c1)c1c(n2CCOCCN2CCOCC2)CCCC1 | > 100 | > 100 | 63.6 | 29 | > 100 | 53.9 | > 100 | 30.9 | 52 | 98.9 | > 100 | – | – | – | – | – | – | – | – | –
2 | C=CCNC(=S)N=Nc1c(O)[nH]c2ccc([N+](=O)[O-])cc12 | > 100 | > 100 | > 100 | > 100 | > 100 | > 100 | > 100 | > 100 | > 100 | 91.7 | > 100 | > 100 | > 100 | 73.3 | > 100 | > 100 | > 100 | > 100 | – | –
3 | CCC1=NC(C(F)(F)F)(C(F)(F)F)N=C(N2CCOCC2)O1 | > 100 | > 100 | > 100 | – | > 100 | > 100 | > 100 | > 100 | > 100 | – | > 100 | > 100 | > 100 | > 100 | – | – | > 100 | > 100 | – | –
4 | Cn1ccnc1C(O)(c1nccn1C)c1nccn1C | – | > 100 | > 100 | > 100 | > 100 | – | > 100 | > 100 | > 100 | – | – | – | – | > 100 | – | > 100 | > 100 | > 100 | > 100 | > 100
